Drawing on ChEMBL document CHEMBL1152959, “Design, synthesis and dopamine D4 receptor binding activities of new N-heteroaromatic 5/6-ring Mannich bases” (Bioorg Med Chem, 2009), this text covers Ki and Activity for 38 compounds.

The target of one experiment is T1, D(4) dopamine receptor (Homo sapiens, UniProt P21917).
T1 sequence (P21917 whole entry): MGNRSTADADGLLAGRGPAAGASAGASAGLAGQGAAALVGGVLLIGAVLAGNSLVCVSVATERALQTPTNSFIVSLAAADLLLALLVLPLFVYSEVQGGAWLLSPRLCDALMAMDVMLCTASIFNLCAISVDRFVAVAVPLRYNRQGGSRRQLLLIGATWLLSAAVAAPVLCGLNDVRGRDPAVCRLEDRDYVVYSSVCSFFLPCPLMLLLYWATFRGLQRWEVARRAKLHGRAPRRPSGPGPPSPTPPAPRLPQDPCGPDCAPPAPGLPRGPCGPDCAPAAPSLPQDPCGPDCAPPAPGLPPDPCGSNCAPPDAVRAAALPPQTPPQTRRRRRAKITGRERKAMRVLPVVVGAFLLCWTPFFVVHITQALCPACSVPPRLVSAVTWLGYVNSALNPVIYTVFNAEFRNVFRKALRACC
The experiment can be described thus: Displacement of [3H]spiroperidol from human cloned dopamine D4.4 receptor expressed in CHO cells. It is filed as cell-based.

The next experiment concerns the target D(1A) dopamine receptor (Bos taurus, UniProt Q95136).
Experiment [1] has as its target T2, D(2) dopamine receptor (Homo sapiens, UniProt P14416). The experiment can be described thus: biochemical.
Description: Displacement of [3H]SCH23390 from human cloned dopamine D2 long receptor expressed in CHO cells
The next experiment concerns the target D(3) dopamine receptor (Homo sapiens, UniProt P35462). Put plainly: biochemical.
In experiment [2] the target is T2, D(2) dopamine receptor. Put plainly: biochemical. This is another data set of the same source.
Description: Displacement of [3H]spiroperidol from human cloned dopamine D2 short receptor expressed in CHO cells
The target in experiment [3] is T3, D(4) dopamine receptor (Homo sapiens) (UniProt P21917).
T3 sequence (whole entry): T1 sequence (P21917 whole entry)
The experiment can be described thus: Displacement of [3H]spiperone from human cloned dopamine D4.4 receptor expressed in CHO cells at 100 nM. It is filed as cell-based. On the technique in general: Displacement assays read how much labelled ligand stays bound in the presence of the test substance.

The target of experiment [4] is T2, D(2) dopamine receptor. The experiment can be described thus: Displacement of [3H]spiperone from human cloned dopamine D2 long receptor expressed in CHO cells at 100 nM. It is filed as cell-based.
The target of experiment [5] is D(1A) dopamine receptor (Sus scrofa) (UniProt P50130). Put plainly: Displacement of [3H]SCH23390 from pig dopamine D1 receptor at 100 nM.
D(1A) dopamine receptor (Sus scrofa), sequence (P50130 whole entry): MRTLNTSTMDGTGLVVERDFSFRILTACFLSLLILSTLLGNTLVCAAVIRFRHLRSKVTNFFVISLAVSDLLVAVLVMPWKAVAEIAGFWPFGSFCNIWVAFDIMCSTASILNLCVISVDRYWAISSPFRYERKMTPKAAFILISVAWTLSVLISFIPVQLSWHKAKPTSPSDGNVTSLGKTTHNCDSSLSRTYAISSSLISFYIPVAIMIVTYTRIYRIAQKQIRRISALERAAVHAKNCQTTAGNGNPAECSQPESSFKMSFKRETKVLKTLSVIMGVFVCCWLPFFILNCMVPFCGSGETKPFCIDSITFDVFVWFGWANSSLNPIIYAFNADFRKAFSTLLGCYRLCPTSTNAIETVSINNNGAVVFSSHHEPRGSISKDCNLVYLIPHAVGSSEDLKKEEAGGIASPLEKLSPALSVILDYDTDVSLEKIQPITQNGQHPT

T2 sequence (P14416 whole entry): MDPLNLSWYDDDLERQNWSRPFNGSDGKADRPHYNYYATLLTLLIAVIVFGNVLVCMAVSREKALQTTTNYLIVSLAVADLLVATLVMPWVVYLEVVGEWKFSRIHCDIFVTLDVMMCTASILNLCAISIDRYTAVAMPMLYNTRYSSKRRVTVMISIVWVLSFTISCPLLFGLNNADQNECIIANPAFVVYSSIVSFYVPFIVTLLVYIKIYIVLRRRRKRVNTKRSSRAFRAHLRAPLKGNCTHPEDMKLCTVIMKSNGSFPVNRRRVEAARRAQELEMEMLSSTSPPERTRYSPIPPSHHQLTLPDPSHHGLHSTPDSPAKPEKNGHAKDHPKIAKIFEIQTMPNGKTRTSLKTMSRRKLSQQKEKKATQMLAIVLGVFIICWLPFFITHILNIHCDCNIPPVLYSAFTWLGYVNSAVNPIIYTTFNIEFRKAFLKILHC
D(1A) dopamine receptor, sequence (Q95136 whole entry): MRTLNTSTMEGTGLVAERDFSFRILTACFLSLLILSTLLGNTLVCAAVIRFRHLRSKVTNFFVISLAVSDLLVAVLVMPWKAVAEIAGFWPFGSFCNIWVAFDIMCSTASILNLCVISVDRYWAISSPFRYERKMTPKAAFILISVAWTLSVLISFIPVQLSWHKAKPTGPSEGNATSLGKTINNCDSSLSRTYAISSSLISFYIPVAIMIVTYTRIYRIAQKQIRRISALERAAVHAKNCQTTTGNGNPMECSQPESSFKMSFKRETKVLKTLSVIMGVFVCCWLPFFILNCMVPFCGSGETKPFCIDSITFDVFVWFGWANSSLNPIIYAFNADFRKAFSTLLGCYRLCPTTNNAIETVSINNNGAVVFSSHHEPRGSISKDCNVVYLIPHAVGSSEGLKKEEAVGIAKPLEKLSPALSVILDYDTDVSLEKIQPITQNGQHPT
D(3) dopamine receptor, sequence (P35462 whole entry): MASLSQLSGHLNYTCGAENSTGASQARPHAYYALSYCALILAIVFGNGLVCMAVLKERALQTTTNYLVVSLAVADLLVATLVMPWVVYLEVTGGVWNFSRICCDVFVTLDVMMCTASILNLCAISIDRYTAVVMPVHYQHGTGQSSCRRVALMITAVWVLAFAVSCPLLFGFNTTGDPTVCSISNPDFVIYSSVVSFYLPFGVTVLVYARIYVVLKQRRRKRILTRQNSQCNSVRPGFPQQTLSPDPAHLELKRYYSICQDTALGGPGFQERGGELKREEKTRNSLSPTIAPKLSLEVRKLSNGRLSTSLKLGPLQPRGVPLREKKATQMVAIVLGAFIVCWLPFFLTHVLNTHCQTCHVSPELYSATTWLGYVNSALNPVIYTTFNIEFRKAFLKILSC
Description for D(3) dopamine receptor: Displacement of [3H]spiroperidol from human cloned dopamine D3 receptor expressed in CHO cells

Turning to `COc1ccccc1N1CCN(Cc2cnc3cc(C)nc(C)n23)CC1`, the Ki at D(4) dopamine receptor turned out to be 66 nM; on D(1A) dopamine receptor it was 11000 nM; on D(2) dopamine receptor [1], 1300 nM; at D(3) dopamine receptor, 1500 nM; on D(2) dopamine receptor [2], 570 nM.
For the compound `COc1ccc(N2CCN(Cc3c(C)nc4cc(C)nc(C)n34)CC2)cc1`, the Activity (in experiment [3]; on D(2) dopamine receptor [4]; in experiment [5]) was 0% each time. Further, the Ki at D(4) dopamine receptor is 960 nM; at D(1A) dopamine receptor, 6600 nM; at D(2) dopamine receptor [1], 260 nM; at D(3) dopamine receptor it was 8.5 nM; at D(2) dopamine receptor [2], 160 nM.
Take `Cc1cc2ncc(CN3CCN(c4ccccn4)CC3)n2c(C)n1`: the Activity (in experiment [3]; on D(2) dopamine receptor [4]; in experiment [5]) was 0% in each case.
With `Cc1cc2ncc(CN3CCN(c4ccccn4)CC3)n2cn1`, the Activity (in experiment [3]; on D(2) dopamine receptor [4]; in experiment [5]) was 0% throughout.
Consider `COc1ccc(N2CCN(Cc3cnc4cc(C)ncn34)CC2)cc1`, for which the Activity (in experiment [3]; at D(2) dopamine receptor [4]; in experiment [5]) was 0% throughout.
For `Cn1c(N2CCCC2)nc2c(CN3CCN(c4ccc(F)cc4)CC3)c[nH]c2c1=O`, the Ki came to 16 nM on D(4) dopamine receptor; 160 nM at D(1A) dopamine receptor; 840 nM on D(2) dopamine receptor [1]; 630 nM on D(3) dopamine receptor; 400 nM on D(2) dopamine receptor [2].
Consider `Cc1cc2ncc(CN3CCN(c4ccccc4)CC3)n2cn1`, for which the Activity stood at 20% in experiment [3], 0% at D(2) dopamine receptor [4] and 0% in experiment [5].
On to `CCOC(=O)c1nc2cc(C)nc(C)n2c1CN1CCN(c2ccc(OC)cc2)CC1`, for which the Activity (in experiment [3]; at D(2) dopamine receptor [4]; in experiment [5]) was 0% in each case.
For the compound `Cc1cc2nc(C)c(CN3CCN(c4ccccc4)CC3)n2cn1`, the Activity (in experiment [3]; on D(2) dopamine receptor [4]; in experiment [5]) was 0% throughout.
Regarding `Cc1cc2nc(C)c(CN3CCN(c4ccccn4)CC3)n2c(C)n1`, the Ki amounted to 120 nM at D(4) dopamine receptor; 22000 nM at D(1A) dopamine receptor; 17000 nM at D(2) dopamine receptor [1]; 640 nM at D(3) dopamine receptor; 10000 nM at D(2) dopamine receptor [2].
Turning to `Cc1cc2ncc(CN3CCN(c4ccc(Cl)cc4)CC3)n2c(C)n1`, the Activity (in experiment [3]; on D(2) dopamine receptor [4]; in experiment [5]) was 0% in each case.
For `Cc1cc2ncc(CN3CCN(c4ccc(Cl)c(Cl)c4)CC3)n2c(C)n1`, the Activity (in experiment [3]; on D(2) dopamine receptor [4]; in experiment [5]) was 0% in each case.
Take `Cc1cc2nc(C)c(CN3CCN(c4ccc(F)cc4)CC3)n2c(C)n1`: the Ki at D(4) dopamine receptor stood at 360 nM; at D(1A) dopamine receptor, 12000 nM; at D(2) dopamine receptor [1] it was 4700 nM; on D(3) dopamine receptor, 22000 nM; at D(2) dopamine receptor [2] it was 3500 nM.
For `Cn1c(N2CCCC2)nc2c(CN3CCN(c4ccc(Cl)c(Cl)c4)CC3)c[nH]c2c1=O`, in that order: 3.4 nM, 1500 nM, 570 nM, 480 nM and 380 nM.
Take `COc1ccc(N2CCN(Cc3cnc4cc(C)nc(C)n34)CC2)cc1`: the Activity (in experiment [3]; at D(2) dopamine receptor [4]; in experiment [5]) was 0% each time.
As to `COc1ccccc1N1CCN(Cc2c(C)nc3cc(C)nc(C)n23)CC1`, the Activity in experiment [3] came to 60%; at D(2) dopamine receptor [4], 0%; in experiment [5], 0%. Further, the Ki on D(4) dopamine receptor worked out at 14 nM; on D(1A) dopamine receptor, 8400 nM; on D(2) dopamine receptor [1], 2300 nM; at D(3) dopamine receptor, 3400 nM; on D(2) dopamine receptor [2], 2900 nM.
On to `Cc1cc2ncc(CN3CCN(c4ccccc4)CC3)n2c(C)n1`, for which the Activity (in experiment [3]; on D(2) dopamine receptor [4]; in experiment [5]) was 0% each time.
As for `COc1ccc(N2CCN(Cc3c(C)nc4cc(C)ncn34)CC2)cc1`, the Activity in experiment [3] is 60%; at D(2) dopamine receptor [4], 0%; in experiment [5], 0%. The Ki on D(4) dopamine receptor came out at 12 nM; at D(1A) dopamine receptor it was 27000 nM; at D(2) dopamine receptor [1], 9100 nM; at D(3) dopamine receptor, 13000 nM; at D(2) dopamine receptor [2], 13000 nM.
For `COc1ccc(N2CCN(Cc3c(C)[nH]c4nc(N(C)C)ncc34)CC2)cc1`, the Activity (in experiment [3]; at D(2) dopamine receptor [4]; in experiment [5]) was 0% throughout.
As to `Cn1c(N2CCCC2)nc2c(CN3CCN(c4ccccn4)CC3)c[nH]c2c1=O`, the Ki at D(4) dopamine receptor came to 2.8 nM; on D(1A) dopamine receptor it was 790 nM; on D(2) dopamine receptor [1], 270 nM; at D(3) dopamine receptor, 310 nM; at D(2) dopamine receptor [2], 150 nM.
In the case of `COc1ccc(N2CCN(Cc3cnc4ccncn34)CC2)cc1`, the Activity (in experiment [3]; on D(2) dopamine receptor [4]; in experiment [5]) was 0% in each case.
For the compound `COc1ccccc1N1CCN(Cc2cc3c(=O)[nH]c(N(C)C)nc3[nH]2)CC1`, the results for the Activity (in experiment [3]; on D(2) dopamine receptor [4]; in experiment [5]) were 60%, 20% and 20%, respectively. The Ki on D(4) dopamine receptor turned out to be 2.4 nM; at D(1A) dopamine receptor, 8400 nM; at D(2) dopamine receptor [1], 130 nM; on D(3) dopamine receptor, 960 nM; at D(2) dopamine receptor [2], 170 nM.
Turning to `COc1ccc(N2CCN(Cc3cnc4cc(OC)nc(OC)n34)CC2)cc1`, the Activity in experiment [3] was 0%; at D(2) dopamine receptor [4] it was 20%; in experiment [5] it was 0%.
As to `COc1cc2ncc(CN3CCN(c4ccccc4OC)CC3)n2c(OC)n1`, the Activity in experiment [3] worked out at 20%; at D(2) dopamine receptor [4] it was 0%; in experiment [5] it was 0%.
Consider `Cc1cc2nc(C)c(CN3CCN(c4ccc(Cl)cc4)CC3)n2cn1`, for which the Activity (in experiment [3]; on D(2) dopamine receptor [4]; in experiment [5]) was 0% throughout.
Take `Cc1cc2ncc(CN3CCN(c4ccc(Cl)c(Cl)c4)CC3)n2cn1`: the Activity (in experiment [3]; on D(2) dopamine receptor [4]; in experiment [5]) was 0% in each case.
`Cc1cc2nc(C)c(CN3CCN(c4ccc(Cl)cc4)CC3)n2c(C)n1`: the Ki was 66 nM on D(4) dopamine receptor; 7100 nM at D(1A) dopamine receptor; 26000 nM on D(2) dopamine receptor [1]; 3100 nM at D(3) dopamine receptor; 57000 nM at D(2) dopamine receptor [2].
With `COc1ccccc1N1CCN(Cc2c(C)nc3cc(C)ncn23)CC1`, the figures for the Activity (in experiment [3]; on D(2) dopamine receptor [4]; in experiment [5]) were 20%, 0% and 0%, respectively. Moreover, the Ki on D(4) dopamine receptor was determined as 39 nM; on D(1A) dopamine receptor, 59000 nM; at D(2) dopamine receptor [1], 40000 nM; at D(3) dopamine receptor, 67000 nM; at D(2) dopamine receptor [2] it was 53000 nM.
Consider `Clc1nccc2c(CN3CCN(c4ccccc4)CC3)c[nH]c12`, for which the Ki stood at 6.4 nM on D(4) dopamine receptor; 6800 nM at D(1A) dopamine receptor; 2600 nM at D(2) dopamine receptor [1]; 6100 nM at D(3) dopamine receptor; 2900 nM on D(2) dopamine receptor [2].
The like results for `Cn1c(N2CCOCC2)nc2c(CN3CCN(c4ccccc4)CC3)c[nH]c2c1=O` were, in that order, 25 nM, 520 nM, 1100 nM, 2700 nM and 730 nM.
As to `Cc1cc2nc(C)c(CN3CCN(c4ccc(Cl)c(Cl)c4)CC3)n2cn1`, the Activity in experiment [3] stood at 20%; at D(2) dopamine receptor [4], 0%; in experiment [5], 0%.
In the case of `Cc1cc2ncc(CN3CCN(c4ccc(Cl)cc4)CC3)n2cn1`, the Activity (in experiment [3]; at D(2) dopamine receptor [4]; in experiment [5]) was 0% throughout.
Turning to `CCOC(=O)c1nc2cc(C)nc(C)n2c1CN1CCN(c2ccccc2OC)CC1`, the Activity (in experiment [3]; on D(2) dopamine receptor [4]; in experiment [5]) was 0% in each case.
`COc1ccccc1N1CCN(Cc2cnc3cc(C)ncn23)CC1`: the Activity (in experiment [3]; on D(2) dopamine receptor [4]; in experiment [5]) was 0% each time.
Consider `Cn1c(N2CCCC2)nc2c(CN3CCN(c4ccccc4)CC3)c[nH]c2c1=O`, for which the Ki at D(4) dopamine receptor worked out at 3.8 nM; on D(1A) dopamine receptor, 250 nM; at D(2) dopamine receptor [1], 390 nM; at D(3) dopamine receptor it was 330 nM; at D(2) dopamine receptor [2], 180 nM.
Regarding `Cc1cc2nc(C)c(CN3CCN(c4ccccc4)CC3)n2c(C)n1`, the Ki amounted to 70 nM at D(4) dopamine receptor; 11000 nM on D(1A) dopamine receptor; 8600 nM on D(2) dopamine receptor [1]; 4200 nM on D(3) dopamine receptor; 11000 nM at D(2) dopamine receptor [2].
`Cc1cc2nc(C)c(CN3CCN(c4ccc(Cl)c(Cl)c4)CC3)n2c(C)n1`: the Ki at D(4) dopamine receptor worked out at 21 nM; at D(1A) dopamine receptor it was 2100 nM; at D(2) dopamine receptor [1], 3300 nM; at D(3) dopamine receptor it was 1300 nM; at D(2) dopamine receptor [2], 5500 nM.
As to `Cc1cc2nc(C)c(CN3CCN(c4ccccn4)CC3)n2cn1`, the Activity in experiment [3] amounted to 40%; at D(2) dopamine receptor [4] it was 0%; in experiment [5], 0%.

By Ki is commonly meant the dissociation constant of the complex between target and ligand, obtained from inhibition or displacement. High values mean lower affinity, low ones higher affinity.
